Source: ChEMBL document CHEMBL4196098, “Structure-Activity Relationships and Therapeutic Potentials of 5-HT7 Receptor Ligands: An Update” (J Med Chem, 2018)
pKi: −log10 of the molar value. Each block holds one compound with its values, some of them ahead of it.

How the values were obtained:
[1] = biological target: T1, 5-hydroxytryptamine receptor 7 (Rattus norvegicus, UniProt P32305); assay: Displacement of [3H]lysergide from rat recombinant 5-HT7 receptor expressed in HEK293 cell membranes incubated for 60 mins by radioligand binding assay
T1 sequence (P32305 whole entry): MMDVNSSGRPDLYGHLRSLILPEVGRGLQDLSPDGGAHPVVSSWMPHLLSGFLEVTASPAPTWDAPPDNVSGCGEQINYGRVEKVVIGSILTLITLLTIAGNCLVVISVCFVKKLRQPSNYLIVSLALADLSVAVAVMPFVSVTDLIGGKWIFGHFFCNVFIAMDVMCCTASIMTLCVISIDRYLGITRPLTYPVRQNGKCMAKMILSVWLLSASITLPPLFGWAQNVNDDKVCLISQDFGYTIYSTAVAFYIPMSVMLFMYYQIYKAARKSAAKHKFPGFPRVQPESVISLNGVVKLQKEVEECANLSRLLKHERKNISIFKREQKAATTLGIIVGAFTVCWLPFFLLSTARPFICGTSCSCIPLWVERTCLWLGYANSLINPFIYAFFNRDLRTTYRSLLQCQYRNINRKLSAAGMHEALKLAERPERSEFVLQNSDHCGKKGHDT

[2] = biological target: T2, 5-hydroxytryptamine receptor 1A (Rattus norvegicus, UniProt P19327); assay: Displacement of [3H]-8-OH-DPAT from 5-HT1A in rat hippocampal membranes incubated for 20 mins by radioligand binding assay; assay type: cell membranes
T2 sequence (P19327 whole entry): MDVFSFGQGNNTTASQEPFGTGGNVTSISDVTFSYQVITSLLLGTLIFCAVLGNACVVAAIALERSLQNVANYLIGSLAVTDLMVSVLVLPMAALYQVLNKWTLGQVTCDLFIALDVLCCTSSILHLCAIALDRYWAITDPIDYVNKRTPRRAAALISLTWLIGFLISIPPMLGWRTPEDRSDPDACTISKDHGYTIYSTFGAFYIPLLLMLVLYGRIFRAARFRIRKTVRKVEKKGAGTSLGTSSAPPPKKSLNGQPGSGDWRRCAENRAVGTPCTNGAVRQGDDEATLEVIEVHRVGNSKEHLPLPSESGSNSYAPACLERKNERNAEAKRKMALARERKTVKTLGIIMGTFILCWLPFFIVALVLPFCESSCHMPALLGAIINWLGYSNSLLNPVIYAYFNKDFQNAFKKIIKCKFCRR

[3] = Intrinsic clearance in human liver microsomes; assay type: ADME, microsome; details: read-out: CLH
[4] = Ratio of drug level in brain to plasma in mouse at 5 mg/kg, ip; assay type: ADME, organism-based; details: read-out: BPR
[5] = biological target: 5-hydroxytryptamine receptor 7 (Homo sapiens, UniProt P34969); assay: Binding affinity to 5-HT7 receptor (unknown origin)
5-hydroxytryptamine receptor 7 (Homo sapiens, UniProt P34969), sequence (P34969 whole entry): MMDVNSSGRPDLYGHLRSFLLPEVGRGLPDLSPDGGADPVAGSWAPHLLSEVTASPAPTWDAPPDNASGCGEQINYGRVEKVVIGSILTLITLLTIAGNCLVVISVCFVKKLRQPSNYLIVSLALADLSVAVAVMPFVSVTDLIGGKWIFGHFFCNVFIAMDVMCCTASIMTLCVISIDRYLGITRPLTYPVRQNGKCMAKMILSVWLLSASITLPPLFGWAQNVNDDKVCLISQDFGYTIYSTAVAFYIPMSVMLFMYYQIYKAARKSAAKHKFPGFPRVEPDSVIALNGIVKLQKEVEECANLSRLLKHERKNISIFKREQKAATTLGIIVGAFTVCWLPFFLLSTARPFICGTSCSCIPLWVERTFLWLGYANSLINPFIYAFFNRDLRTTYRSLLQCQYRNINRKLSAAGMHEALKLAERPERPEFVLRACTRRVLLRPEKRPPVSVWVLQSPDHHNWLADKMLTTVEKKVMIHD

[6] = biological target: T1, 5-hydroxytryptamine receptor 7; assay: Displacement of [3H]5-CT from rat 5-HT7 receptor expressed in HEK293 cell membranes by radioligand binding assay
[7] = biological target: T3, 5-hydroxytryptamine receptor 2C (Homo sapiens, UniProt P28335); assay: Binding affinity to 5-HT2c receptor (unknown origin)
T3 sequence (P28335 whole entry): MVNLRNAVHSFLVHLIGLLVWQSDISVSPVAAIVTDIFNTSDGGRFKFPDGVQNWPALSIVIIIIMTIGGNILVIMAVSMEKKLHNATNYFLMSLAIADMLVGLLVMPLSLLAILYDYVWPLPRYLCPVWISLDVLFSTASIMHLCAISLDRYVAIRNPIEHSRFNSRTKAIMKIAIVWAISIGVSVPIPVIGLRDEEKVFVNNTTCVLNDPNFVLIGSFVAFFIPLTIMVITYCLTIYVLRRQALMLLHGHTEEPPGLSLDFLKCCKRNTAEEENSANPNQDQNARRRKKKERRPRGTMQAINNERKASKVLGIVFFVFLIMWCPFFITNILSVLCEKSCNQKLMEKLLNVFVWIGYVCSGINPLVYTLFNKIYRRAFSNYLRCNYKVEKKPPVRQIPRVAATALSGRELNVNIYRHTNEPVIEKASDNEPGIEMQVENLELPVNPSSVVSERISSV

[8] = biological target: 5-hydroxytryptamine receptor 2A (Homo sapiens, UniProt P28223); assay: Binding affinity to 5-HT2A receptor (unknown origin)
5-hydroxytryptamine receptor 2A, sequence (P28223 whole entry): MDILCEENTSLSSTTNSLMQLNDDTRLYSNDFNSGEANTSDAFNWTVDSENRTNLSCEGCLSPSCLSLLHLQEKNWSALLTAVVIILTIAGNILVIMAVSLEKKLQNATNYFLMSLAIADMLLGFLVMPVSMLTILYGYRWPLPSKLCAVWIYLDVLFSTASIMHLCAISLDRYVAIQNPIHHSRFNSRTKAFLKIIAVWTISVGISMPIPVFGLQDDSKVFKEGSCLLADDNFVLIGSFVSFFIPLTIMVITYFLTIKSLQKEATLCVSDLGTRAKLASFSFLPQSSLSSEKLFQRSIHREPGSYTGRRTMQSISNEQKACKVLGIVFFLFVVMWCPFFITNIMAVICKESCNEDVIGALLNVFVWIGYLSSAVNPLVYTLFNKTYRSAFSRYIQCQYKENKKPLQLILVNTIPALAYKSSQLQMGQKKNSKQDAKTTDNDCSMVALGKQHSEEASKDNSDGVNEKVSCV

[9] = biological target: T1, 5-hydroxytryptamine receptor 7; assay: Displacement of [3H]-5-CT from 5-HT7 receptor in rat hypothalamus membranes by Cheng-Prusoff equation analysis; assay type: cell membranes, Membrane

SMILES: COc1cccc(CCN2CCN(c3ccccc3OC)CC2)c1
pKi [1]: 7.61 | pKi [2]: 8.63

CLint scaled [3]: 3.69 mL/min/kg | Kp [4]: 6.34
SMILES: CCn1cncc1-c1c[nH]c2ccc(OC)cc12

SMILES: Cc1nn(C)c(C)c1-c1cccc(CCN(C)C)c1
pKi [5]: 8.60

SMILES: COc1cccc(CCN2CCN(c3ccccc3-c3ccccc3)CC2)c1
pKi [1]: 8.12 | pKi [2]: 7.70

pKi [5]: 8.40
SMILES: CNC(=O)CN1c2ccccc2C2CCN(CCCCC34CCCc5cccc(c53)NC4=O)CC21 (centres undefined)

CLint scaled [3]: 6.3 mL/min/kg
SMILES: CCn1cncc1-c1c[nH]c2ccc(I)cc12

SMILES: Cc1nn(C)c(C)c1-c1ccc(O)c(CCN(C)C)c1
pKi [5]: 9.33

pKi [6]: 8.19
SMILES: Clc1ccc(-c2nn(Cc3ccccc3)c3c2CCNCC3)cc1 [JNJ-18038683 FREE BASE]

pKi [7]: 8.70 to 8.92 | pKi [8]: 8.70 to 8.92
SMILES: Cc1ccc2c(c1)c1c(n2CCc2ccccc2)CCN(C)C1 [MARITUPIRDINE]

pKi [9]: 7.05
SMILES: O=C1c2cccc3cccc(c23)N1CCCCCN1CCN(c2ccccc2)CC1 [UCM-5600]
